The text below walks through data of US9796700B2 (Celgene CAR LLC, priority 2013, dated 2017).

Chain of Erk1 (P27361 whole entry, looked up): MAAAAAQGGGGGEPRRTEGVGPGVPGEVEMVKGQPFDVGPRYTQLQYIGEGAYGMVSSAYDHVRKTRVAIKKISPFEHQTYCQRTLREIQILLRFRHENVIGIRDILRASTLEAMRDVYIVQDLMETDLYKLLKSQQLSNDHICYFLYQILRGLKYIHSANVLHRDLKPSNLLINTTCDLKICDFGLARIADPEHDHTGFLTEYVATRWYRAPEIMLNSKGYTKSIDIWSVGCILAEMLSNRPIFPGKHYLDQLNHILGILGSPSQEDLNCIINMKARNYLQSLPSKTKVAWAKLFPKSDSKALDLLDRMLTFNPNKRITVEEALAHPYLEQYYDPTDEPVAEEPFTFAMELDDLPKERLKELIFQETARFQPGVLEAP

In the assay the target is Erk1 (Homo sapiens (Human), UniProt P27361). The assay can be described thus: Protein Mass Modification Assay (intact protein MALDI). Format: binding. The method, then:
Protein Mass Modification Assay
Intact protein: Erk1 from Millipore (Cat. No. 14-439) was incubated for 60 min. at room temperature with a 10-fold excess of test compound to protein. 4 μL aliquots of the resulting mixture were diluted with 15 μL of 0.2% TFA prior to micro C4 ZipTipping directly onto the MALDI target using sinapinic acid as the desorption matrix (10 mg/ml in 0.1% TFA:Acetonitrile 50:50, v/v). The centroid mass of the target protein in the control sample was compared with the centroid mass of the target protein incubated with compound. A shift in the centroid mass of the treated protein compared to the untreated protein was divided by the molecular weight of the compound. This number corresponds to the percentage of modified protein after one hour incubation. Results from this assay are reported in Table A under the column “ERK1 Mass Mod (%).”
Take `C=CC(=O)Nc1cc(C)ccc1Nc1nc(Nc2cnc(OC)cc2C)ncc1C(F)(F)F` [Compound I-350, N-(2-((2-((6-methoxy-4-methylpyridin-3-yl)amino)-5-(trifluoromethyl)pyrimidin-4-yl)amino)-5-methylphenyl)acrylamide]: the “ERK1 Mass Mod (%)” value is reported as “F (provided a mass modification of 31-69%)”. As for `C#CC(=O)Nc1cc(C)ccc1Nc1nc(Nc2cc(OC)ncc2C)ncc1C(F)(F)F` [Compound I-345, N-(2-((2-((2-methoxy-5-methylpyridin-4-yl)amino)-5-(trifluoromethyl)pyrimidin-4-yl)amino)-5-methylphenyl)propiolamide], the “ERK1 Mass Mod (%)” value is listed as “E (provided a mass modification of ≧70%)”. Take `COc1cc(N2CCOCC2)ccc1Nc1ncc(C(C)=O)c(Nc2ccccc2N)n1` [Compound I-313, 1-(4-((2-aminophenyl)amino)-2-((2-methoxy-4-morpholinophenyl)amino)pyrimidin-5-yl)ethanone]: the “ERK1 Mass Mod (%)” value is “G (proived a mass modification ≦30%)”. For `C=CC(=O)N(C)c1ccccc1Nc1nc(N[C@@H]2CCC[C@H](C(N)=O)C2)ncc1Cl` (racemic) [Compound I-105, Rac-cis-3-((5-chloro-4-((2-(N-methylacrylamido)phenyl)amino)pyrimidin-2-yl)amino)cyclohexanecarboxamide] the value was “F (provided a mass modification of 31-69%)”; for `CC(=O)N1CCC[C@H](Nc2ncc(C(F)(F)F)c(N[C@H]3[C@@H](C(N)=O)[C@@H]4C=C[C@H]3C4)n2)C1` [Compound I-308, (1S,2S,3R,4R)-3-((2-(((S)-1-acetylpiperidin-3-yl)amino)-5-(trifluoromethyl)pyrimidin-4-yl)amino)bicyclo[2.2.1]hept-5-ene-2-carboxamide], “G (proived a mass modification ≦30%)”. For `C=CC(=O)Nc1cc(F)ccc1Nc1nc(N[C@@H]2CCC[C@H](C(N)=O)C2)ncc1C(F)(F)F` (racemic) [Compound I-5, Rac-cis-3-((4-((2-acrylamido-4-fluorophenyl)amino)-5-(trifluoromethyl)pyrimidin-2-yl)amino)cyclohexanecarboxamide], the “ERK1 Mass Mod (%)” value was “E (provided a mass modification of ≧70%)”. For `C=CC(=O)Nc1cc(C)ccc1Nc1nc(Nc2cc(C(N)=O)ccn2)ncc1Cl` [Compound I-238, 2-((4-((2-acrylamido-4-methylphenyl)amino)-5-chloropyrimidin-2-yl)amino)isonicotinamide], the “ERK1 Mass Mod (%)” value was “E (provided a mass modification of ≧70%)”. Turning to `C=CC(=O)Nc1ccccc1Nc1nc(NC2CCN(C=O)CC2)ncc1C(F)(F)F` [Compound I-11, N-(2-((2-((1-formylpiperidin-4-yl)amino)-5-(trifluoromethyl)pyrimidin-4-yl)amino)phenyl)acrylamide], the “ERK1 Mass Mod (%)” value is “E (provided a mass modification of ≧70%)”. Regarding `C=CC(=O)Nc1ccccc1Nc1nc(Nc2cc(C(N)=O)c(OCCCNC(=O)C#CC)cc2C)ncc1Cl` [Compound I-305, 5-((4-((2-acrylamidophenyl)amino)-5-chloropyrimidin-2-yl)amino)-2-(3-(but-2-ynamido)propoxy)-4-methylbenzamide], the “ERK1 Mass Mod (%)” value is reported as “E (provided a mass modification of ≧70%)”.

Turning to `C=CC(=O)Nc1ccccc1Nc1nc(Nc2cc(C(=O)NOCCO)ccc2OC)ncc1C(F)(F)F` [Compound I-74, 3-((4-((2-Acrylamidophenyl)amino)-5-(trifluoromethyl)pyrimidin-2-yl)amino)-N-(2-hydroxyethoxy)-4-methoxybenzamide], the “ERK1 Mass Mod (%)” value is “E (provided a mass modification of ≧70%)”. With `C=CC(=O)Nc1cc(C)ccc1Nc1nc(Nc2ccnc(F)c2)ncc1C(F)(F)F` [Compound I-288, N-(2-((2-((2-Fluoropyridin-4-yl)amino)-5-(trifluoromethyl)pyrimidin-4-yl)amino)-5-methylphenyl)acrylamide], the “ERK1 Mass Mod (%)” value is “E (provided a mass modification of ≧70%)”. Regarding `C=CC(=O)Nc1ccccc1Nc1nc(N[C@@H]2CCC[C@H](C(=O)NOCCO)C2)ncc1C(F)(F)F` (racemic) [Compound I-4, Rac-cis-3-((4-((2-acrylamidophenyl)amino)-5-(trifluoromethyl)pyrimidin-2-yl)amino)-N-(2-hydroxyethoxy)cyclohexanecarboxamide], the “ERK1 Mass Mod (%)” value is given as “F (provided a mass modification of 31-69%)”.

On to `C=CC(=O)Nc1ccccc1Nc1nc(Nc2cc(C(=O)NC)c(F)cc2C)ncc1Cl` [Compound I-231, 5-((4-((2-acrylamidophenyl)amino)-5-chloropyrimidin-2-yl)amino)-2-fluoro-N,4-dimethylbenzamide], for which the “ERK1 Mass Mod (%)” value is listed as “E (provided a mass modification of ≧70%)”. For `C=CC(=O)Nc1ccccc1Nc1nc(Nc2ccc(N3CCC[C@@H]3C(N)=O)cc2C#N)ncc1Cl` [Compound I-179, (R)-1-(4-((4-((2-acrylamidophenyl)amino)-5-chloropyrimidin-2-yl)amino)-3-cyanophenyl)pyrrolidine-2-carboxamide], the “ERK1 Mass Mod (%)” value was “E (provided a mass modification of ≧70%)”.

Take `C=CC(=O)Nc1ccccc1Nc1nc(Nc2ccc(N(CCCN)C(C)=O)cc2OC)ncc1Cl` [Compound I-167, N-(2-((2-((4-(N-(3-aminopropyl)acetamido)-2-methoxyphenyl)amino)-5-chloropyrimidin-4-yl)amino)phenyl)acrylamide]: the “ERK1 Mass Mod (%)” value is “E (provided a mass modification of ≧70%)”. Take `C=CC(=O)Nc1ccccc1Nc1nc(Nc2ccc(N(CCCNC(=O)OC(C)(C)C)C(C)=O)cc2OC)ncc1Cl` [Compound I-173]: the “ERK1 Mass Mod (%)” value is on record as “E (provided a mass modification of ≧70%)”.

Turning to `C=CC(=O)Nc1ccccc1Nc1nc(Nc2ccc(N3CCOCC3)cc2OC)ncc1C(=O)NC` [Compound I-250, 4-(2-acrylamidophenylamino)-2-(2-methoxy-4-morpholinophenylamino)-N-methylpyrimidine-5-carboxamide], the “ERK1 Mass Mod (%)” value is “G (proived a mass modification ≦30%)”. Take `C=CC(=O)Nc1ccccc1Nc1nc(N[C@H]2CCN(C(=O)CO)C2)ncc1C(F)(F)F` [Compound I-57, (S)—N-(2-((2-((1-(2-Hydroxyacetyl)pyrrolidin-3-yl)amino)-5-(trifluoromethyl)pyrimidin-4-yl)amino)phenyl)acrylamide]: the “ERK1 Mass Mod (%)” value is “F (provided a mass modification of 31-69%)”. Take `C/C=C/C(=O)Nc1cc(F)ccc1Nc1nc(N[C@@H]2CCC[C@H](C(N)=O)C2)ncc1Cl` (racemic) [Compound I-113, Rac-cis-(E)-3-((4-((2-(but-2-enamido)-4-fluorophenyl)amino)-5-chloropyrimidin-2-yl)amino)cyclohexanecarboxamide]: the “ERK1 Mass Mod (%)” value is “F (key: E: provided a mass modification of ≧70%; F: provided a mass modification of 31-69%; G: proived a mass modification ≦30%)”. For the compound `C=CC(=O)Nc1ccccc1Oc1nc(Nc2ccc(N3CCC[C@@H]3C(N)=O)cc2OC)ncc1C(N)=O` [Compound I-266, (R)-4-(2-acrylamidophenoxy)-2-((4-(2-carbamoylpyrrolidin-1-yl)-2-methoxyphenyl)amino)pyrimidine-5-carboxamide], the “ERK1 Mass Mod (%)” value is “E (provided a mass modification of ≧70%)”. For the compound `C=CC(=O)Nc1ccccc1Nc1nc(NC2CCN(C(C)=O)CC2)ncc1C(F)(F)F` [Compound I-12, N-(2-((2-((1-acetylpiperidin-4-yl)amino)-5-(trifluoromethyl)pyrimidin-4-yl)amino)phenyl)acrylamide], the “ERK1 Mass Mod (%)” value is given as “E (provided a mass modification of ≧70%)”. `C=CC(=O)Nc1ccccc1Nc1nc(N[C@@H]2CCN(C(C)=O)C2)ncc1C(F)(F)F` [Compound I-60, (R)—N-(2-((2-((1-Acetylpyrrolidin-3-yl)amino)-5-(trifluoromethyl)pyrimidin-4-yl)amino)phenyl)acrylamide]: the “ERK1 Mass Mod (%)” value is given as “E (provided a mass modification of ≧70%)”. As for `C=CC(=O)Nc1ccccc1Nc1nc(NC(C)(C)C)ncc1C(F)(F)F` [Compound I-82, N-(2-((2-(tert-Butylamino)-5-(trifluoromethyl)pyrimidin-4-yl)amino)phenyl)acrylamide], the “ERK1 Mass Mod (%)” value was “E (provided a mass modification of ≧70%)”. For `C=CC(=O)Nc1cc(C)ccc1Nc1nc(Nc2ncc(C(F)(F)F)c(OC)n2)ncc1C(F)(F)F` [Compound I-354, N-(2-((2-((4-methoxy-5-(trifluoromethyl)pyrimidin-2-yl)amino)-5-(trifluoromethyl)pyrimidin-4-yl)amino)-5-methylphenyl)acrylamide] the value was “E (provided a mass modification of ≧70%)”; for `C=CC(=O)Nc1ccccc1Nc1nc(Nc2ccc(N(CCN)C(C)=O)cc2OC)ncc1Cl` [Compound I-168, N-(2-((2-((4-(N-(2-aminoethyl)acetamido)-2-methoxyphenyl)amino)-5-chloropyrimidin-4-yl)amino)phenyl)acrylamide], “E (provided a mass modification of ≧70%)”. For the compound `C=CC(=O)Nc1cc(OC)ccc1Nc1nc(Nc2ccc(N3CCC[C@@H]3C(N)=O)cc2C#N)ncc1Cl` [Compound I-180, (R)-1-(4-((4-((2-acrylamido-4-methoxyphenyl)amino)-5-chloropyrimidin-2-yl)amino)-3-cyanophenyl)pyrrolidine-2-carboxamide], the “ERK1 Mass Mod (%)” value was “E (provided a mass modification of ≧70%)”. For `C=CS(=O)(=O)Nc1cc(C)ccc1Nc1nc(Nc2cc(OC)ncc2C)ncc1C(F)(F)F` [Compound I-333, N-(2-((2-((2-methoxy-5-methylpyridin-4-yl)amino)-5-(trifluoromethyl)pyrimidin-4-yl)amino)-5-methylphenyl)ethenesulfonamide] the value was “E (provided a mass modification of ≧70%)”.
